Results reported in patent US9630977B2, “Cephalosporin derivatives and pharmaceutical compositions thereof” (Legochem Biosciences, Inc., priority 2011, dated 2017).
Values after ≈ are worked out from the molar mass of the structure shown. Like-named read-outs stand apart in the source and are kept apart here.

Assays:
[1] = system: P. aeruginosa (16 clinical isolates); experiment: Antibacterial activity on representative drug-resistance bacteria: number of clinical isolates per MIC value; assay type: cell-based; settings: P. aeruginosa (N = 16)
Description: (§1) The in vitro antibacterial activity was evaluated by measuring MIC90 (ug/mL) of each of the compounds of Examples 1 to 68, which is defined as the lowest concentration of an antibiotic that will inhibit the visible growth of 90% of microorganisms after incubation as compared with a control group to which the antibiotic is not treated. MIC90 values were measured by the broth microdilution method developed by the Clinical and Laboratory Standards Institute (CLSI) (see CLSI M7-A5, Methods for Dilution Antimicrobial Susceptibility Test for Bacteria that Grow Aerobically-Fifth Edition (2000): CLSI, Villanova, Pa.).
(§2) Test compounds each (the cephalosporin derivative compounds prepared in Examples 1 to 68) were dissolved in DMSO at the concentration of 10,240 ug/mL, were diluted by two fold with DMSO, and then were diluted by twenty fold with sterilized distilled water. The final concentration in the antibacterial activity test was in the range of […] to 128 ug/mL, and the final concentration of DMSO used as an adjuvant was 2.5% (V/V).

[2] = system: A. baumannii (6 clinical isolates); experiment: as above; assay type: cell-based; settings: A. baumanni (N = 6)
Description: as §1, §2

[3] = system: K. pneumoniae (38 clinical isolates); experiment: as above; assay type: cell-based; settings: K. pneumomiae (N = 38)
Description: as §1, §2

[4] = Pharmacokinetics study in rat, IV; assay type: in vivo, SD rat; settings: Rat (10 mg/kg) single IV; for AUC / Cmax / Tmax / clearance / half-life / Vd: SD, plasma; for Vd: read-out: Vss
Description: Test animals: 9 week old SD rat, weight 290˜310 g; 3 rats/sample time point
Lab conditions: Temperature of 21±2° C.; humidity of 50±20%
Administration method: Injecting test compound solution through tail vein (IV)
Test method: Blood samples were taken from jugular vein at a predetermined time period for 24 hours after administration, plasma was separated, and quantified by using LC-MS/MS.

K. pneumoniae β10 = experiment: In vitro antibacterial activity test (broth microdilution); assay type: cell-based; settings: Klebsiella pneumoniae; K. pneumoniae β10; read-out: MIC90
Outline: (§3)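 MIC90 was determined by CLSI broth microdilution against clinical isolates, as the lowest concentration inhibiting visible growth of 90% of organisms relative to untreated control. Final compound concentrations spanned 0.0626–128 ug/mL with 2.5% (V/V) DMSO.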

K. pneumoniae β9 = experiment: as above; assay type: cell-based; settings: Klebsiella pneumoniae, K. pneumoniae β9; read-out: MIC90
Outline: as §3

P. aeruginosa 6065Y = experiment: as above; assay type: cell-based
Outline: as §3

K. pneumoniae β13 = experiment: as above; assay type: cell-based; settings: K. pneumoniae β13
Outline: as §3

[5] = system: A. calcoaceticus ATCC15473; experiment: as above; assay type: cell-based; settings: Acinetobacter calcoaceticus; A. calcoaceticus ATCC15473; read-out: MIC90
Outline: as §3

P. aeruginosa 37 = experiment: as above; assay type: cell-based; settings: Pseudomonas aeruginosa, 37, P. aeruginosa 37; read-out: MIC90
Outline: as §3

E. coli β4 = experiment: as above; assay type: cell-based; settings: Escherichia coli, read-out: MIC90
Outline: as §3

K. pneumoniae β11 = experiment: as above; assay type: cell-based; settings: Klebsiella pneumoniae; K. pneumoniae β11; read-out: MIC90
Outline: as §3

K. pneumoniae β14 = experiment: as above; assay type: cell-based; settings: Klebsiella pneumoniae, read-out: MIC90
Outline: as §3

E. cloacae β19 = experiment: as above; assay type: cell-based
Outline: as §3

P. aeruginosa 1912E = experiment: as above; assay type: cell-based
Outline: as §3

P. aeruginosa 43 = experiment: as above; assay type: cell-based; settings: Pseudomonas aeruginosa; P. aeruginosa 43; read-out: MIC90
Outline: as §3

M. catarrhalis 2524 = experiment: as above; assay type: cell-based; settings: M. catarrhalis 2524
Outline: as §3

P. aeruginosa 40 = experiment: as above; assay type: cell-based; settings: Pseudomonas aeruginosa, 40, P. aeruginosa 40; read-out: MIC90
Outline: as §3

A. baumannii 46 = experiment: as above; assay type: cell-based; settings: Acinetobacter baumannii; A. baumannii 46; read-out: MIC90
Outline: as §3

A. baumannii 52 = experiment: as above; assay type: cell-based; settings: Acinetobacter baumannii; A. baumannii 52; read-out: MIC90
Outline: as §3

K. pneumoniae 2011E = experiment: as above; assay type: cell-based; settings: Klebsiella pneumoniae, 2011E, K. pneumoniae 2011E; read-out: MIC90
Outline: as §3

E. coli AG100 = experiment: as above; assay type: cell-based; settings: Escherichia coli, AG100, E. coli AG100; read-out: MIC90
Outline: as §3

A. baumannii 49 = experiment: as above; assay type: cell-based; settings: Acinetobacter baumannii; A. baumannii 49; read-out: MIC90
Outline: as §3

19 clinical isolates = experiment: In vitro antibacterial activity test, panel of 19 clinical isolates as a whole; assay type: cell-based; settings: effect of a siderophore group, Table 1
Description: To evaluate antibacterial activity of each of the compounds of Examples 1 to 68, in vitro antibacterial activity test was performed.
as §1
In vitro antibacterial activity was measured with respect to the following 19 clinical isolates: M. catarrhalis; P. aeruginosa (5 strains); K. pneumoniae (6 strains); A. baumannii (3 strains); E. coli (2 strains); A. calcoaceticus; and E. cloacae.
as §2

SMILES: C[C@H](O/N=C(\C(=O)N[C@@H]1C(=O)N2C(C(=O)[O-])=C(C[n+]3cnc(N)c(NCCNC(=O)c4cc(=O)c(O)cn4O)c3)CSC12)c1nc(N)sc1Cl)C(=O)O (stereo partly shown) [Compound 4]
- number of clinical isolates that showed the respective MIC value ([1]; MIC 0.0625 ug/mL): 1
- number of clinical isolates that showed the respective MIC value ([1]; MIC 0.25 ug/mL): 5
- number of clinical isolates that showed the respective MIC value ([1]; MIC 0.5 ug/mL): 2
- number of clinical isolates that showed the respective MIC value ([1]; MIC 1 ug/mL): 1
- number of clinical isolates that showed the respective MIC value ([1]; MIC 2 ug/mL): 2
- number of clinical isolates that showed the respective MIC value ([1]; MIC 4 ug/mL): 1
- number of clinical isolates that showed the respective MIC value ([1]; MIC 8 ug/mL): 1
- number of clinical isolates that showed the respective MIC value ([1]; MIC >16 ug/mL): 3
- number of clinical isolates that showed the respective MIC value ([2]; MIC 0.125 ug/mL): 1
- number of clinical isolates that showed the respective MIC value ([2]; MIC 2 ug/mL): 2
- number of clinical isolates that showed the respective MIC value ([2]; MIC >16 ug/mL): 3
- number of clinical isolates that showed the respective MIC value ([3]; MIC 0.25 ug/mL): 1
- number of clinical isolates that showed the respective MIC value ([3]; MIC 1 ug/mL): 1
- number of clinical isolates that showed the respective MIC value ([3]; MIC 2 ug/mL): 3
- number of clinical isolates that showed the respective MIC value ([3]; MIC 4 ug/mL): 2
- number of clinical isolates that showed the respective MIC value ([3]; MIC 8 ug/mL): 3
- number of clinical isolates that showed the respective MIC value ([3]; MIC 16 ug/mL): 2
- number of clinical isolates that showed the respective MIC value ([3]; MIC >16 ug/mL): 26
- AUCnorm [4]: 4.03 kg·h/L
- Cmax,norm [4]: 7.58 kg/L
- AUC [4]: 40300 ng·h/mL
- Cmax [4]: 75.8 µg/mL
- Tmax [4]: 1.2 min
- clearance [4]: 4.17 mL/min/kg
- half-life [4]: 37.2 min
- Vd [4]: 0.2 L/kg
- MIC90 (K. pneumoniae β10): 0.5 µg/mL (≈ 0.63 µM)
- MIC90 (K. pneumoniae β9): 0.5 µg/mL (≈ 0.63 µM)
- MIC90 (P. aeruginosa 6065Y; Pseudomonas aeruginosa, read-out: MIC90): 0.5 µg/mL (≈ 0.63 µM)
- MIC90 (K. pneumoniae β13; Klebsiella pneumoniae, read-out: MIC90): 1 µg/mL (≈ 1.26 µM)
- MIC90 [5]: 2 µg/mL (≈ 2.52 µM)
- MIC90 (P. aeruginosa 37): 0.5 µg/mL (≈ 0.63 µM)
- MIC90 (E. coli β4): 0.5 µg/mL (≈ 0.63 µM)
- MIC90 (K. pneumoniae β11): 4 µg/mL (≈ 5.04 µM)
- MIC90 (K. pneumoniae β14): 32 µg/mL (≈ 40.3 µM)
- MIC90 (E. cloacae β19; Enterobacter cloacae, read-out: MIC90): 1 µg/mL (≈ 1.26 µM)
- MIC90 (P. aeruginosa 1912E; Pseudomonas aeruginosa, 1912E, read-out: MIC90): 0.5 µg/mL (≈ 0.63 µM)
- MIC90 (P. aeruginosa 43): 1 µg/mL (≈ 1.26 µM)
- MIC90 (M. catarrhalis 2524; Moraxella catarrhalis, read-out: MIC90): 0.25 µg/mL (≈ 0.315 µM)
- MIC90 (P. aeruginosa 40): 1 µg/mL (≈ 1.26 µM)
- MIC90 (A. baumannii 46): 64 µg/mL (≈ 80.6 µM)
- MIC90 (A. baumannii 52): 4 µg/mL (≈ 5.04 µM)
- MIC90 (K. pneumoniae 2011E): 2 µg/mL (≈ 2.52 µM)
- MIC90 (E. coli AG100): 0.125 µg/mL (≈ 0.157 µM)
- MIC90 (A. baumannii 49): 8 µg/mL (≈ 10.1 µM)
- antibacterial activity (in words) (19 clinical isolates): significantly improved

SMILES: CC(C)(O/N=C(\C(=O)N[C@@H]1C(=O)N2C(C(=O)[O-])=C(/C=C/C[n+]3cnc(N)c(NCCNC(=O)c4cc(=O)c(O)cn4O)c3)CSC12)c1csc(N)n1)C(=O)O (stereo partly shown) [Compound 8]
- number of clinical isolates that showed the respective MIC value ([1]; MIC 0.125 ug/mL): 2
- number of clinical isolates that showed the respective MIC value ([1]; MIC 0.25 ug/mL): 1
- number of clinical isolates that showed the respective MIC value ([1]; MIC 0.5 ug/mL): 2
- number of clinical isolates that showed the respective MIC value ([1]; MIC 1 ug/mL): 2
- number of clinical isolates that showed the respective MIC value ([1]; MIC 2 ug/mL): 2
- number of clinical isolates that showed the respective MIC value ([1]; MIC 4 ug/mL): 3
- number of clinical isolates that showed the respective MIC value ([1]; MIC 8 ug/mL): 1
- number of clinical isolates that showed the respective MIC value ([1]; MIC >16 ug/mL): 3
- number of clinical isolates that showed the respective MIC value ([2]; MIC 0.5 ug/mL): 1
- number of clinical isolates that showed the respective MIC value ([2]; MIC >16 ug/mL): 5
- number of clinical isolates that showed the respective MIC value ([3]; MIC 0.25 ug/mL): 1
- number of clinical isolates that showed the respective MIC value ([3]; MIC 8 ug/mL): 1
- number of clinical isolates that showed the respective MIC value ([3]; MIC <0.0625 ug/mL): 1
- number of clinical isolates that showed the respective MIC value ([3]; MIC >16 ug/mL): 35
- AUCnorm [4]: 5.46 kg·h/L
- Cmax,norm [4]: 19.61 kg/L
- AUC [4]: 54600 ng·h/mL
- Cmax [4]: 196 µg/mL
- Tmax [4]: 1.2 min
- clearance [4]: 3 mL/min/kg
- half-life [4]: 52.2 min
- Vd [4]: 0.09 L/kg
- MIC90 (K. pneumoniae β10): < 0.0625 µg/mL
- MIC90 (K. pneumoniae β9): 0.5 µg/mL (≈ 0.625 µM)
- MIC90 (P. aeruginosa 6065Y): 4 µg/mL (≈ 5 µM)
- MIC90 (K. pneumoniae β13): 0.25 µg/mL (≈ 0.313 µM)
- MIC90 [5]: 2 µg/mL (≈ 2.5 µM)
- MIC90 (P. aeruginosa 37): 1 µg/mL (≈ 1.25 µM)
- MIC90 (E. coli β4): 0.5 µg/mL (≈ 0.625 µM)
- MIC90 (K. pneumoniae β11): 32 µg/mL (≈ 40 µM)
- MIC90 (K. pneumoniae β14): 8 µg/mL (≈ 10 µM)
- MIC90 (E. cloacae β19): 32 µg/mL (≈ 40 µM)
- MIC90 (P. aeruginosa 1912E): 1 µg/mL (≈ 1.25 µM)
- MIC90 (P. aeruginosa 43): 1 µg/mL (≈ 1.25 µM)
- MIC90 (M. catarrhalis 2524): 0.5 µg/mL (≈ 0.625 µM)
- MIC90 (P. aeruginosa 40): 0.5 µg/mL (≈ 0.625 µM)
- MIC90 (A. baumannii 46): 8 µg/mL (≈ 10 µM)
- MIC90 (A. baumannii 52): > 128 µg/mL
- MIC90 (K. pneumoniae 2011E): 1 µg/mL (≈ 1.25 µM)
- MIC90 (E. coli AG100): 0.0625 µg/mL (≈ 0.0781 µM)
- MIC90 (A. baumannii 49): > 128 µg/mL
- antibacterial activity (in words) (19 clinical isolates): significantly improved
